In patent publication US10954222B2, “Benzothiophene compound, alternative autophagy-inducing agent and anticancer agent including the compound as active ingredient, and method for screening for compound having anticancer activity” (National University Corporation Tokyo Medical and Dental …, priority 2012, dated 2021):
Where two headings read alike, the source gives them in different places.

Legend:
[1] = tested on: Lamp1-GFP/ATG5-KO MEFs; assay: Evaluation of activity to induce alternative autophagy (fluorescent bright spots due to aggregation of Lamp1-GFP); type: cell-based, mouse; settings: for aggregation of Lamp1-GFP, visually determined: concentrations of 10 μM or higher (10 to 50 μM), 5 hours; for alternative autophagy-inducing activity (FIG. 16): Example 9, same method as Example 1; for ability to induce alternative autophagy, comparative statement: as shown in Examples
Description: First, by using a retrovirus, a gene for expression of a Lamp1-GFP fusion protein (also referred to as “Lamp1-GFP”) was introduced into ATG5-deficient mouse embryonic fibroblasts (also referred to as “ATG5-KO MEFs”). Then, a cell with high expression of Lamp1-GFP was cloned and prepared as Lamp1-GFP/ATG5-KO MEFs.
The ATG5-KO MEFs were prepared by introducing a gene for expression of SV40T antigen into MEFs established from an ATG5-deficient C57/B6J mouse at a fetal age of 14.5 days by an electroporation method using an Nucleofector system (manufactured by amaxa) for immortalization. In addition, the retrovirus was prepared by introducing an MSCV-Lamp1-GFP (zeocin resistant) vector into plat E cells, which were retrovirus packaging cells.
To the Lamp1-GFP/ATG5-KO MEFs seeded at 1×10^4/96 wells on the preceding day, each of the test compounds was added at a final concentration of 50 μM, and the Lamp1-GFP/ATG5-KO MEFs were cultured at 37° C. under 10% CO2 for 5 hours.
Then, for observation, Hoechst 33342 (manufactured by invitrogen) was added at a final concentration of 1 ng/ml to each culture liquid, followed by incubation for 5 minutes. Then, the culture liquid was replaced with 100 μl of HBSS. Subsequently, five visual fields per well were photographed at random with IN CELL ANALYZER 1000 (manufactured by GE Healthcare).
Then, the thus obtained novel benzothiophene compounds (TMD-459 and TMD-460) were evaluated for the ability to induce alternative autophagy by the same method as that described in Example 1. Note that, in Example 10, each of the compounds was added to culture liquids at final concentrations of 10, 20, 30, 40, and 50 μM. In addition, compound #9 was also added as a reference example to culture liquids at the above-described concentrations. Then, 5 hours after the addition of each of these compounds, five visual fields per each well were photographed at random with IN CELL ANALYZER 1000, and the presence or absence of fluorescent bright spots due to the aggregation of Lamp1-GFP was visually determined.

[2] = tested on: MEFs immortalized with SV40T antigen; assay: cells; settings: Mus musculus, 24 h, read-out: induced cell death of the MEFs immortalized with SV40T antigen
[3] = tested on: MEFs immortalized with SV40T antigen; settings: 24 hours, CTB
[4] = tested on: 53T implanted in wild-type C57/B6J mice; assay: Survival rate of cancer-bearing mice; type: in vivo, mouse; settings: 10 μM every other day 5 times; compared with etoposide at 10 μM, FIGS. 13 to 15
[5] = tested on: fibroblasts (cancer cells) immortalized with SV40; assay: Activity to induce cell death specific to cancer cells: cancer cells (CTB survival rate); type: cell-based; settings: 20 μM, FIGS. 7 and 8
[6] = tested on: p53-deficient cancer cells (53T); assay: Alternative autophagy-inducing activity in tumor cell line (Lamp2 aggregation, fluorescence and electron microscope); type: cell-based, mouse; settings: 20 μM, six hours, FIGS. 3 to 6
Description: In the same manner as in the above-described <Evaluation of Alternative Autophagy-Inducing Activity> using the Lamp1-GFP/ATG5-KO MEFs, each of the compounds #09 and #13 was added at a final concentration of 20 μM to a culture liquid of the tumor cell line (also referred to as “53T”) established from the tumor developed spontaneously in the p53 deficient C57/B6J mouse. […] Note that, in this evaluation, Lamp2 was used instead of Lamp1. FIGS. 3 to 6 show the obtained results.

[7] = tested on: mouse tumor cell line 53T; assay: Evaluation of in vitro anticancer activity (Cell titer blue, cell death induction rate); type: cell-based; parameters: key: (CTB of negative control − CTB treated)/CTB of negative control; settings: 24 hours, CTB
Description: First, the mouse tumor cell line 53T was seeded at 2×10^4/well on 96 well plates. Then, on the following day, each of compounds #09 and #13 dissolved in DMSO was added at a final concentration of 1, 5, 10, 20, or 50 μM. In addition, a negative control to which only DMSO was added was prepared. Subsequently, the cells were cultured at 37° C. under 10% CO2 for 24 hours. Then, by using Cell titer blue (CTB) (manufactured by Promega) according to the attached protocol, the amount of the fluorescence of each well of the cells 10 minutes after the addition of the CTB reagent was measured as a CTB measurement value of the cells brought into contact with compound #09 or #13. On the basis of such measurement values, the cell death induction rate of each of compounds #09 and #13 was calculated according to the following formula. Cell death induction rate=(CTB measurement value of negative control−CTB measurement value of cells to which compound was added)/CTB measurement value of negative control

[8] = tested on: tumor cell line 53T implanted in wild-type C57/B6J mice; assay: In vivo anticancer activity, tumor volume in cancer-bearing mice implanted with 53T; parameters: species or system mouse; settings: for anticancer activity (FIG. 17, tumor volumes in cancer-bearing mice): Example 9
Description: A tumor cell line (also referred to as “53T”) established from a tumor developed spontaneously in a p53 deficient C57/B6J mouse was implanted at 4 sites in the ventral skin of each of wild-type C57/B6J mice at 3×10^5 cells per site. From the following day, the compounds were administered to the mice every other day five times in total. The concentration of each compound was 0.4 μmol/(50 μl DMSO+100 μl PBS)/mouse/administration. In addition, a negative control group to which only the same amount of DMSO was administered was prepared. Then, 21 days (3 weeks) after the implantation, the tumor diameters of the mice were measured, and the tumor volumes were calculated, and compared with that of the control group.
The 53T was implanted at 4 sites in the ventral skin of each of wild-type C57/B6J mice at 3×10^5 cells per site. From the following day, 0 (DMSO alone), 5, 10, or 20 μM of each of compounds #09 and #13 was administered to six mice every other day five times in total. Then, 21 days (3 weeks) after the implantation, the tumor diameters of the mice were measured, and the tumor volumes were calculated. FIGS. 9 and 11 show the obtained results. Note that, in FIGS. 9 and 11, each point indicates the average volume of the tumors at the four sites in a mouse.
In addition, in the same manner as described above, the 53T was implanted in mice, and, from the following day, each of compound #09 at a concentration of 10 μM and compound #13 at a concentration of 5 μM was administered to four cancer-bearing mice every other day five times in total. Then, 21 days (3 weeks) after the implantation, the tumor diameters of the mice were measured, and the tumor volumes were calculated. In addition, a negative control to which DMSO was administered was also prepared, and the tumor volume was calculated in the same manner. In addition, these experiments were conducted three times independently of each other. FIGS. 10 and 12 show the obtained results. Note that in FIGS. 10 and 12, each point indicates the average volume of the tumors at the four sites in a mouse.

[9] = tested on: primary cultured fibroblasts (normal cells); assay: Activity to induce cell death specific to cancer cells: normal cells (CTB survival rate); type: cell-based; settings: 20 μM, FIGS. 7 and 8
Description: CTB measurement values were obtained in the same manner as in the above-described <Evaluation of In Vitro Anticancer Activity> by adding each of compounds #09 and #13 at a final concentration of 20 μM to culture liquids of primary cultured fibroblasts (normal cells) and fibroblasts (cancer cells) immortalized with SV40. On the basis of the obtained CTB measurement values, the cell survival rate was calculated over time. Note that the cell survival rate was defined as 1-cell death induction rate. FIGS. 7 and 8 show the obtained results.

[10] = Cell-killing effect (necrosis) of analogous compounds; type: cell-based; settings: even when added at a low concentration

## CCOC(=O)c1c(NC(C)=O)sc2c(OCCN(CC)CC)c(-c3ccccc3)ccc12 [TMD-459, Ethyl 2-Acetylamino-7-[2-(N,N-diethylamino)ethyloxy]-6-phenylbenzo[b]thiophene-3-carboxylate]
[1]
  aggregation of Lamp1-GFP, visually determined: aggregation of the Lamp1-GFP was observed in all the cells

## CCOC(=O)c1c(N)sc2c(OCCN(CC)CC)c(Br)ccc12 [TMD-460, Ethyl 2-Amino-7-[2-(N,N-diethylamino)ethyloxy]-6-bromobenzo[b]thiophene-3-carboxylate]
[2]
  mortality at 20 µM: ≥ 80%
[1]
  aggregation of Lamp1-GFP, visually determined: aggregation of the Lamp1-GFP was observed in all the cells
[3]; 10 μM
  Cell death induction rate: 0.7701
[3]; 20 μM
  Cell death induction rate: 0.875
[3]; 30 μM
  Cell death induction rate: 0.8885
[3]; 40 μM
  Cell death induction rate: 0.8902
[3]; 50 μM
  Cell death induction rate: 0.8919

## N=C(Nc1ccc2c(c1)OCCO2)Nc1nc(-c2cccs2)cc(C(F)(F)F)n1 [compound 13]
[4]
  improvement effect on the survival rate of the cancer-bearing mice: higher improvement effect on the survival rate of the cancer-bearing mice than etoposide
[5]
  cell death-inducing activity on cancer cells (cell survival rate over time): exhibited remarkable cell death-inducing activity on the cancer cells
[6]
  aggregation of Lamp2 and occurrence of autophagy: aggregation of the lysosomal protein Lamp2 and occurrence of autophagy were observed
[7]; 1 μM
  Cell death induction rate: 0
[7]; 5 μM
  Cell death induction rate: 0.1776
[7]; 10 μM
  Cell death induction rate: 0.4559
[7]; 20 μM
  Cell death induction rate: 0.768
[7]; 50 μM
  Cell death induction rate: 0.9426
[8]; 0.4 μmol/mouse/administration, every other day five times, 21 days after implantation
  in vivo anticancer activity (tumor volume vs control group, FIG. 2): selected as compounds having in vivo anticancer activity
[8]; 5, 10, or 20 μM every other day five times, 21 days after implantation
  in vivo anticancer activity (tumor volume, FIGS. 9 to 12): exhibited in vivo anticancer activity
[8]; administered at 5 μM
  in vivo anticancer activity at low concentration (FIG. 11): exhibited remarkable anticancer activity
[9]
  cell death of normal cells (cell survival rate over time): hardly induced cell death of the normal cells

## CCOC(=O)c1c(NC(C)=O)sc2c(OCC(O)CNC3CCCCC3)c(Br)ccc12 (stereo not drawn) [compound 36]
[10]
  cell-killing effect (necrosis): strong cell-killing effect (necrosis)

## CCOC(=O)c1c(NC(C)=O)sc2c(OC(C)=O)cccc12 [compound 37]
[1]
  alternative autophagy-inducing activity (FIG. 16): no alternative autophagy-inducing activity
[8]
  anticancer activity (FIG. 17, tumor volumes in cancer-bearing mice): did not have anticancer activity

## CCOC(=O)c1c(NC(C)=O)sc2c(NC(C)=O)cccc12 [compound 38]
[1]
  alternative autophagy-inducing activity (FIG. 16): no alternative autophagy-inducing activity
[8]
  anticancer activity (FIG. 17, tumor volumes in cancer-bearing mice): did not have anticancer activity

## COc1c(Br)ccc2c(C(=O)O)c(NC(C)=O)sc12 [compound 40]
[1]
  alternative autophagy-inducing activity (FIG. 16): no alternative autophagy-inducing activity
[8]
  anticancer activity (FIG. 17, tumor volumes in cancer-bearing mice): did not have anticancer activity

## CCOC(=O)c1c(NC(=O)c2ccccc2)sc2c(O)c(Br)cc(Br)c12 [compound 42]
[1]
  alternative autophagy-inducing activity (FIG. 16): no alternative autophagy-inducing activity
[8]
  anticancer activity (FIG. 17, tumor volumes in cancer-bearing mice): did not have anticancer activity

## CCOC(=O)c1c(NC(C)=O)sc2c(Cl)c(/C=N/c3ccccc3)cc(Br)c12 [compound 44]
[1]
  alternative autophagy-inducing activity (FIG. 16): no alternative autophagy-inducing activity
[8]
  anticancer activity (FIG. 17, tumor volumes in cancer-bearing mice): did not have anticancer activity

## CCCC(=O)c1c(NC(C)=O)sc2c(Cl)c(/C=N\CCCCO)ccc12 [compound 46]
[1]
  alternative autophagy-inducing activity (FIG. 16): no alternative autophagy-inducing activity
[8]
  anticancer activity (FIG. 17, tumor volumes in cancer-bearing mice): did not have anticancer activity

## C=CC/N=C/c1cc(C)c2c(C(=O)OCC)c(NC(C)=O)sc2c1Cl [compound 47]
[10]
  cell-killing effect (necrosis): strong cell-killing effect (necrosis)

## CCOC(=O)c1c(NC(C)=O)sc2c(OCCN(CC)CC)c(-c3ccc(OC)cc3)ccc12 [formula (1-10)]
[1]
  ability to induce alternative autophagy, comparative statement: ability to induce alternative autophagy is higher

## CCOC(=O)c1c(NC(C)=O)sc2c(OCCN(CC)CC)c(-c3ccccc3SC)ccc12 [formula (1-14)]
[1]
  ability to induce alternative autophagy, comparative statement: ability to induce alternative autophagy is higher

## CCOC(=O)c1c(NC(C)=O)sc2c(OCCN(CC)CC)c(-c3ccc(O)cc3)ccc12 [formula (1-15)]
[1]
  ability to induce alternative autophagy, comparative statement: ability to induce alternative autophagy is higher

## CCOC(=O)c1c(NC(C)=O)sc2c(OCCN(CC)CC)c(-c3cccs3)ccc12 [formula (1-17)]
[1]
  ability to induce alternative autophagy, comparative statement: ability to induce alternative autophagy is higher

## CCOC(=O)c1c(NC(C)=O)sc2c(OCCN(CC)CC)c(-c3ccsc3)ccc12 [formula (1-18)]
[1]
  ability to induce alternative autophagy, comparative statement: ability to induce alternative autophagy is higher
